The structures appear in SMILES notation.

This note sets out measurements from patent US6583274B1, “Crystalline forms of macrolide antibiotic” (Pfizer Inc., priority 1999, dated 2003).

Data set [1] is described as follows: hygroscopicity measurement (weight vs relative humidity on storage). It is filed as physicochemical. The conditions noted are these: for hygroscopicity: about 87% relative humidity, ambient temperature. Here is the method:
FIG. 3: Weight (Pct) - Relative humidity (Pct).
As used herein, the term “non-hygroscopic” when used to describe a composition of matter means that the composition of matter absorbs moisture at a rate of less than about 0.4% over 24 hours at 90% relative humidity.
A particular advantage conferred by this form is its lack of hygroscopicity.
From this and other data, it has been determined that crystalline anhydrous CP-472,295 is non-hygroscopic at about 87% relative humidity for about 72 hours at ambient temperature. This unexpected property allows the low-cost, efficient handling and storage of the drug, and the facile incorporation of accurate amounts of the drug into a variety of dosage forms.
Crystalline CP-472,295 monohydrate, like the crystalline anhydrous form described above, is advantageously non-hygroscopic. […] From this and other data, it has been determined that crystalline CP-472,295 monohydrate is non-hygroscopic at about 87% relative humidity for about 7 days at ambient temperature. This unexpected property allows the low-cost, efficient handling and storage of the drug, and the facile incorporation of accurate amounts of the drug into a variety of dosage forms.
By contrast, the pseudomorph formed when the monohydrate loses water is hygroscopic, and reabsorbs the water of hydration within about 4 hours when stored at about 87% relative humidity at ambient temperature.

The nature of data set [2]: water loss under routine handling conditions. Format: physicochemical. The settings on record: routine handling conditions (e.g., 25° C. and 70% relative humidity).

Take `CCCNC[C@]1(O)[C@H](C)O[C@@H](O[C@H]2[C@H](C)[C@@H](O[C@@H]3O[C@H](C)C[C@H](N(C)C)[C@H]3O)[C@@](C)(O)C[C@@H](C)CN[C@H](C)[C@@H](O)[C@](C)(O)[C@@H](CC)OC(=O)[C@@H]2C)C[C@@]1(C)OC` [crystalline CP-472,295 monohydrate]: in data set [1] (about 7 days), the hygroscopicity result is on record as “non-hygroscopic (absorbs moisture at a rate of less than about 0.4% over 24 hours at 90% relative humidity)”.

Consider `CCCNC[C@]1(O)[C@H](C)O[C@@H](O[C@H]2[C@H](C)[C@@H](O[C@@H]3O[C@H](C)C[C@H](N(C)C)[C@H]3O)[C@@](C)(O)C[C@@H](C)CN[C@H](C)[C@@H](O)[C@](C)(O)[C@@H](CC)OC(=O)[C@@H]2C)C[C@@]1(C)OC` [crystalline CP-472,295 sesquahydrate], for which, in data set [2], the “loss of water (stability of hydrate)” value is recorded as “readily loses water”. In the case of `CCCNC[C@]1(O)[C@H](C)O[C@@H](O[C@H]2[C@H](C)[C@@H](O[C@@H]3O[C@H](C)C[C@H](N(C)C)[C@H]3O)[C@@](C)(O)C[C@@H](C)CN[C@H](C)[C@@H](O)[C@](C)(O)[C@@H](CC)OC(=O)[C@@H]2C)C[C@@]1(C)OC` [crystalline anhydrous CP-472,295], in data set [1] (about 72 hours), the hygroscopicity entry was “non-hygroscopic (absorbs moisture at a rate of less than about 0.4% over 24 hours at 90% relative humidity)”. Consider `CCCNC[C@]1(O)[C@H](C)O[C@@H](O[C@H]2[C@H](C)[C@@H](O[C@@H]3O[C@H](C)C[C@H](N(C)C)[C@H]3O)[C@@](C)(O)C[C@@H](C)CN[C@H](C)[C@@H](O)[C@](C)(O)[C@@H](CC)OC(=O)[C@@H]2C)C[C@@]1(C)OC` [pseudomorph], for which the hygroscopicity entry in data set [1] (pseudomorph formed when the monohydrate loses water) was “hygroscopic”. Also, the “time to reabsorb the water of hydration” value in data set [1] (stored at about 87% relative humidity at ambient temperature) is ≤ 4 h.
